In a melting point compilation (Tetko et al.) one finds melting point data, which are given here for 87 compounds.

Structures are written as SMILES.

Take `COc1ccc(Cl)cc1CBr`: the melting point is 77 to 79 °C.
In turn, `O=C(O)CNC(=O)c1ccc(Br)o1` had a melting point of 91 to 93 °C.
Take `O=C(O)CCCc1nc(-c2ccccc2)no1`: the melting point fell in the range of 105 to 107 °C.
As for `CCOC(=O)/C(C#N)=C\Nc1cc(F)cc(F)c1`, the figure is 174 to 176 °C; as for `COc1ccc(-c2[nH]c3ccccc3c2CCC(=O)O)cc1`, 134 to 136 °C.
As for `O=C(O)c1cccc(S(=O)(=O)N2CCCC2)c1`, the melting point fell in the range of 157 to 159 °C.
As for `CC(C)(C)OC(=O)Nc1ccc(F)cc1N`, the figure is 131 to 133 °C.
As for `CCCCc1ccc(C(=O)CCC(=O)O)cc1`, the figure is 113 to 115 °C; as for `Cc1cc(C)c(N)c(Cl)n1`, 56 to 58 °C.
The result for `Nc1nc2nc(-c3cccs3)cc(C(F)(F)F)c2s1` reads 243 to 245 °C; that for `CC1(C)CC(NC(=O)CCl)CC(C)(C)N1`, 61 to 63 °C; that for `CCOC(=O)Nc1ccc(NC(C)c2ccccn2)cc1` (configuration not stated), 145 to 147 °C.
Turning to `O=C(O)c1nnn(-c2cccc(F)c2)c1C(F)(F)F`, the melting point is 130 to 132 °C.
The result for `NCC(O)COc1ccc(I)cc1` (configuration not stated) reads 129 to 131 °C.
`CC(C)Oc1nnc(S)s1` displayed a melting point of 105 to 107 °C.
`O=Cc1cnn(-c2ccc(F)cc2)c1`: the melting point was 120 to 122 °C.
As for `N#CSc1ccc(N)cc1`, the figure is 43 to 56 °C; as for `CCc1cc(=O)c2ccccc2[nH]1`, 174 to 176 °C.
The result for `CS(=O)(=O)c1cccc(C(=O)NN)c1` reads 144 to 146 °C; that for `NNC(=O)Nc1ccc(Br)cc1Cl`, 163 to 165 °C; that for `Cc1cccc(F)c1C#N`, 45 to 47 °C.
Regarding `CC(Cl)C(=O)NCCc1cccs1` (configuration not stated), the melting point is under 17 °C.
As for `Cc1cccc(C2(C(F)(F)F)CCCN2)c1C` (configuration not stated), the figure is 45 to 47 °C; as for `O=Cc1c(F)cccc1N1CCCC1`, 41 to 43 °C; as for `CN(C(=O)C1CC1)c1ccccc1C(=O)O`, 166 to 168 °C.
As for `COc1ccc(N)cc1-n1nnnc1C`, the melting point was in the range of 130 to 132 °C.
The result for `O=C(CN1CCNCC1)Nc1ccccc1Cl` reads 99 to 101 °C; that for `COCCCC(N)=NO`, 84 to 86 °C; that for `O=c1[nH]c(-c2cccc(F)c2)cs1`, 198 to 200 °C.
For the compound `CN(C)C(=O)c1ccc2c(c1)CCN2`, the melting point was in the range of 156 to 158 °C.
The result for `O=C(O)CCCCc1ccc(I)cc1` reads 109 to 111 °C.
Compound `O=C(O)C1CCCN(c2ncccc2C(F)(F)F)C1` (configuration not stated) displayed a melting point of 86 to 88 °C.
As for `O=C(c1cc(Cl)c[nH]1)C(Cl)(Cl)Cl`, the figure is 128 to 130 °C; as for `CNc1nc(S)nc2ccccc12`, 220 to 222 °C.
The result for `COc1cccc(Nc2nc3ccccc3s2)c1` reads 117 to 119 °C; that for `Nc1cccc(Oc2ccnc3ccccc23)c1`, 114 to 116 °C.
As for `Cc1c(Cl)cc(S(=O)(=O)Cl)cc1[N+](=O)[O-]`, the figure is 60 to 62 °C.
`Nc1cc([N+](=O)[O-])c(F)cc1F` registered a melting point of 98 to 100 °C.
As for `CC(C)c1ccc(S(=O)(=O)N2CC(O)CC2C(=O)O)cc1` (configuration not stated), the figure is 153 to 155 °C; as for `N#Cc1ccc(CS(=O)(=O)CC(=O)O)cc1`, 197 to 199 °C; as for `N#CCc1ccc(OCc2ccc(Cl)nc2)cc1`, 99 to 101 °C.
The compound `Cc1nn(C)c2nc(C(C)C)cc(C(=O)O)c12` showed a melting point of 211 to 213 °C.
As for `O=c1cc[nH]c2ccc(Br)cc12`, the figure is 286 to 288 °C; as for `Cc1cc(/C=C(\C#N)C(=O)O)c(C)n1-c1ccccc1F`, 165 to 167 °C; as for `Oc1nnnn1-c1ccc(Cl)cc1`, 141 to 143 °C.
`Nc1cc(Cl)c(N)cc1Cl` displayed a melting point of 164 to 166 °C.
As to `O=C1CC(c2ccccn2)CN1` (configuration not stated), the melting point was 79 to 81 °C.
The result for `COCCOc1cccc(CC(=O)O)c1` reads 47 to 49 °C.
The result for `Nc1cccnc1OCc1ccccc1` reads 51 to 53 °C; that for `Cc1cc(Oc2ccccc2)ccc1N`, 60 to 62 °C.
As for `NC(=S)c1ccc(N)cc1`, the figure is 189 to 191 °C; as for `Cn1ncc(Cl)c(Cl)c1=O`, 87 to 89 °C; as for `O=C(Nc1ccc2[nH]ccc2c1)c1ccc(F)cc1Br`, 185 to 187 °C.
In turn, `Cc1cc(CC(=O)O)c(C)n1-c1ccc(Cl)cc1` had a melting point of 118 to 120 °C.
As for `O=C(O)C1CCCN1C(=O)C1CCCCC1` (configuration not stated), the figure is 135 to 137 °C; as for `N#CC=C(Cl)c1cccc(OC(F)F)c1`, 45 to 47 °C.
The result for `C1CCC(c2nnc3n2CCCC3)NC1` (configuration not stated) reads 107 to 109 °C; that for `c1ccc2cc(CN3CCNCC3)ccc2c1`, 53 to 55 °C; that for `O=C(CC(=O)NCc1ccccc1)NCc1ccccc1`, 119 to 121 °C.
The result for `Nc1nnc2n1CCCC2` reads 270 to 272 °C.
`Cc1cnoc1N` registered a melting point of 59 to 61 °C.
Compound `CC(NC(=O)OC(C)(C)C)C(N)=NO` (configuration not stated) displayed a melting point of 139 to 141 °C.
The result for `Cc1cc(F)ccc1CO` reads 44 to 46 °C; that for `N#CCc1ccc(OCC(=O)O)cc1`, 148 to 150 °C.
The result for `O=C(O)C1CCN(c2ccc3cccc(O)c3n2)CC1` reads 281 to 283 °C; that for `NC(CC(=O)O)c1ccc(C(F)(F)F)cc1` (configuration not stated), 219 to 221 °C; that for `O=S1(=O)CC(O)C(S(=O)(=O)Cl)C1` (configuration not stated), 111 to 113 °C.
The result for `O=C(Nc1ccc(C(=O)O)c(O)c1)c1ccc(Cl)c(Cl)c1` reads 272 to 274 °C; that for `Cc1c(C(=O)O)sc2ccc(F)cc12`, 289 to 291 °C.
On to `COC(=O)c1ccccc1S(=O)(=O)Nc1ccccc1Cl`, for which the melting point was 97 to 99 °C.
Compound `CN(C)C(=O)c1cc(S(=O)(=O)Cl)cn1C` came in with a melting point of 105 to 107 °C.
As for `CCc1ccc(C=CS(=O)(=O)Cl)cc1`, the figure is 66 to 68 °C; as for `COc1cc(C)nc(Cl)n1`, 35 to 37 °C; as for `Nc1ccccc1N1CCOC1=O`, 88 to 90 °C.
`Cc1cc(C(=O)O)ccc1NC(=O)c1cccs1`: the melting point lay in the range of 199 to 201 °C.
Regarding `CC(C)(C)n1ncc(C#N)c1N`, the melting point fell in the range of 90 to 92 °C.
The result for `COC(=O)c1cc(NC(=O)C(C)Cl)cc(C(=O)OC)c1` (configuration not stated) reads 126 to 128 °C.
As for `CC(=O)Nc1cc(C#N)ccc1S(C)(=O)=O`, the figure is 145 to 147 °C; as for `COC(=O)c1n[nH]c(=O)c2noc(C)c12`, 215 to 217 °C; as for `Cc1cc(C=O)c(C)n1-c1ccc(F)c(F)c1F`, 89 to 91 °C.
With `Nc1c(Cl)ncnc1NC1CC1`, the melting point was 139 to 141 °C.
The result for `COc1cc2ncc(Cl)nc2cc1OC` reads 149 to 151 °C; that for `Nc1nnc(Cc2ccc3ccccc3c2)o1`, 219 to 221 °C; that for `Cc1ccc(-c2nnc(C(C)Cl)o2)cc1C` (configuration not stated), 86 to 88 °C.
Compound `Clc1ccc2nncn2n1` came in with a melting point of 213 to 215 °C.
The result for `COc1cc(CN)c2ccccc2n1` reads 79 to 81 °C; that for `Cc1ccc([N+](=O)[O-])cc1S(=O)(=O)Nc1ccccc1C(=O)O`, 290 to 292 °C.
